# Earlier results, collected in patent US20100150868A1, “Methods of Individually Optimizing Treatment for an Inflammation Associated Disease” (Tel HaShomer Medical Research Infrastructure and Services …, priority 2005, published 2010).
# System: TNF-α secretion of MOG stimulated PBMC
# Conditions: in vitro, 10 μg/ml
substance,measurement,value
Glatiramer acetate [Copaxone],inhibitory effect on TNF-α producing cells compared with in-vivo experiments,same inhibitory effect
